From patent publication US8697731B2, “Derivatives of 2-pyridin-2-yl-pyrazol-3(2H)-one, preparation and therapeutic use thereof” (Sanofi, priority 2008, dated 2014)

How the values were obtained:
EPO = assay: Measurement of the secretion of EPO by Hep3B hepatocytes (ELISA); assay type: cell-based; conditions: Homo sapiens, supernatant of Hep3B cells, 18 hours under normoxia, concentration that produces 50% of the maximum response of this same compound
Experimental: (§1) The test is an ELISA test for measuring VEGF and EPO in the supernatant of Hep3B cells treated under hypoxia or with deferoxamine as controls or with the potential HIF activators. The test was adapted to a 96-well plate, allowing greater compound screening capacity.
(§2) 2.3.1 Experiment Plan • 1) Inoculation of the cells on D0 • 2) Adherence for 6 hours under normoxia • 3) Preparation and addition of the products (Biomek 2000 and FX) • 4) Incubation under normoxia for 18 hours • 5) EPO and VEGF assay in the supernatant on D+1
(§3) The cells are subcultured into 100 μl of culture medium (10% FCS) in black, opaque-bottomed 96-well plates (reference Costar 3916) at 30000 cells/well, with Multidrop.
(§4) The test products are prepared at 10^−2M in 100% DMSO and then diluted to […] in medium containing 0.1% FCS (6 μl in 194 μl of MEM). 200 μl of each compound are deposited in column 12 of a 96-well plate. Dilution ranges from 3×10^−4M to 3×10^−8M are prepared with Biomek 2000 (programme: range of 9 points in series). 100 μl of MEM 0.1% FCS and Deferoxamine 5×10^−3M are added as controls to column 3 and, respectively, to wells A,B,C,D & wells E,F,G,H
(§5) The medium of the cells inoculated the day before into 96-well plates is changed for 90 μl of medium containing 0.1% FCS and 10 μl are distributed with FX 96 from the 96-well DL plates to the cell plates.
(§6) The cell plates thus treated are placed for 18 hours in an incubator at 37° C. (ambient O2, 6% CO2).
(§7) The supernatants (80 μl) of the Hep3B cells in the 96-well plates treated with the potential HIF activators are recovered with a multichannel pipette for simultaneous assay of the VEGF and the EPO by ELISA according to the supplier's instructions (Kit EPO Mesoscale (ref K15122B-2)).
(§8) The activating activity of a compound with respect to HIF is given by the concentration that produces 50% of the maximum response of this same compound in Table IV.

HIF1-alpha = assay: Measurement of the stabilization of HIF1-alpha in HEKEA cells (beta-galactosidase complementation); assay type: cell-based, human; conditions: HEKEA_HIF1-alphaPLBL cells, 6 hours under normoxia, luminescence; molar concentration that produces 50% of the maximum response of this same compound
Excerpt: Furthermore, a subject of the invention is also a uniform test for the direct measurement by beta-galactosidase complementation of the amount of HIF1-alpha protein in the nucleus of cells, preferably HEK cells, after treating the said cells with one or more test compounds, which consists in: • (a) inoculating, preferably in 384-well plates, the said cells in a suitable culture medium, preferably 1% foetal calf serum (abbreviated as FCS); • (b) adding the test compound(s) at a suitable concentration in a suitable solvent to the cells previously inoculated in the said culture medium; preferably the test compounds are diluted in 0.1% FCS; • (c) incubating the said cells thus prepared in an indicator at about 37° C., advantageously for about 6 hours; • (d) lysing the cells with a lysis buffer containing a chemiluminescent substrate for beta-galactosidase; • (e) incubating in the absence of light, before reading and measuring the luminescence, which is a function of the beta-galactosidase activity.
The test is a cell test based on the principle of enzyme complementation, the enzyme used herein being beta-galactosidase. HEKEA cells are HEK cells stably expressing, and restricted in their nucleus, mutant beta-galactosidase (omega fragment, also known as EA) (line sold by DiscoverX). This construct makes it possible to obtain beta-galactosidase activity only when the protein comprising the Prolabel complementation fragment has migrated into the nucleus.
The protein of interest comprising the Prolabel fragment is in this case an HIF1-alpha or HIF1-alpha mutated at the two prolines 402 and 564 replaced with alanines, is C-terminal fused via molecular biology (DiscoverX vector sold by Clontech) with the small complementation peptide fragment (Prolabel or ED, about 4 kDa). The vector coding for the chimeric protein HIF1-alpha_Prolabel is then transfected into HEKEA cells to obtain stable clones (HEKEA_HIF1-alphaPLBL).
The amount of C-terminal Prolabel-“labelled” HIF1-alpha protein obtained after treating the cells to hypoxia or compounds that are potentially HIF activators is measured by adding to the cells a lysis buffer containing a chemiluminescent substrate for beta-galactosidase.
The measurement of the beta-galactosidase activity will be proportional to the amount of Prolabel and thus of HIF1-alpha that has migrated into the nucleus of the cells.
1.3.1 Experiment Plan • 1) Inoculation of the cells on D0 • 2) Adherence for 24 hours under normoxia • 3) Preparation and addition of the products (Biomek 2000 and FX) on D+1 • 4) Incubation under normoxia for 6 hours • 5) Reading of the plates (by luminescence)
The cells are inoculated with Multidrop in white, opaque-bottomed 384-well plates (Greiner ref 3704), in 30 μl of culture medium (1% FCS) a 10000 cells/well (cell plate).
The test products are prepared at 3×10^−2 M in 100% DMSO and then diluted to 3×10^−4 M in medium containing 0.1% FCS (10 μl in 990 μl of MEM). They are then deposited by hand into column 12 of a round-bottomed 96-well plate (200 μl of each compound) known as the dilution plate (dl). The complete DL plate of 3×10^−4 M to 10^−9 M is then prepared with Biomek 2000 (programme: range of 10 points in series). For the references and controls, 100 μl of DMEM containing 0.1% FCS are added to column 1, 100 μl of Deferoxamine 10^−3M to column 2, wells A B C D and 100 μl of Deferoxamine 5×10^−3 M to column 2, wells E F G H.
3.3 μL are taken from the DL plate by pipetting with a Biomek FX 96 and placed in horizontal duplicate (columns 1 to 24) in each 384-well cell plate (HEKEA_HIF1-alphaPLBL cell plate).
The cells are then placed for 6 hours in an incubator at 37° C. (ambient O2, 6% CO2).
The kit used is the Prolabel chemiluminescent kit (Ref 93-0001 DiscoverX). […]

VEGF = assay: Measurement of the secretion of VEGF by Hep3B hepatocytes (ELISA); assay type: cell-based; conditions: Homo sapiens, supernatant of Hep3B cells, 18 hours under normoxia, concentration that produces 50% of the maximum response of this same compound
Experimental: as §1, §2, §3, §4, §5, §6, §7, §8

EC50 (HIF1-alpha) [nM] | melting point [°C] | SMILES | EC50 (EPO) [nM] | EC50 (VEGF) [nM]
2500 | 118 | CCN(c1ccccc1)S(=O)(=O)c1ccc(-n2[nH]c3c(c2=O)CN(C(C)=O)CC3)nc1 [Compound 29, 6-(5-acetyl-3-oxo-1,3,4,5,6,7-hexahydro-2H-pyrazolo[4,3-c]pyridin-2-yl)-N-ethyl-N-phenylpyridine-3-sulfonamide] | 2500 | 2600
5500 | 238 | O=c1c2c([nH]n1-c1ccc(S(=O)(=O)NCc3ccco3)cn1)CSC2 [Compound 19, N-(furan-2-ylmethyl)-6-(3-oxo-4,6-dihydro-1H-thieno[3,4-c]pyrazol-2(3H)-yl)pyridine-3-sulfonamide] | 2400 | 2400
3400 | > 260 | O=c1c2c([nH]n1-c1ccc(S(=O)(=O)NC3CCCC3)cn1)CSC2 [Compound 20, N-cyclopentyl-6-(3-oxo-4,6-dihydro-1H-thieno[3,4-c]pyrazol-2(3H)-yl)pyridine-3-sulfonamide] | 1000 | 900
